Active and inactive are the calls of the source. The rule behind the calls is not given here.
How the values were obtained:
[1] = test system: HeLa; assay: Cytotoxicity against human HeLa cells assessed as cell growth inhibition after 6 to 24 hrs by counting chamber analysis; type: functional, cell-based
[2] = molecular target: T1, 2-5A-dependent ribonuclease (Homo sapiens, UniProt Q05823); assay: Induction of recombinant human RNase L activity expressed in Escherichia coli using F-5'-r(C11U2C7)-3' as substrate by polyacrylamide gel electrophoresis
T1 sequence (Q05823 whole entry): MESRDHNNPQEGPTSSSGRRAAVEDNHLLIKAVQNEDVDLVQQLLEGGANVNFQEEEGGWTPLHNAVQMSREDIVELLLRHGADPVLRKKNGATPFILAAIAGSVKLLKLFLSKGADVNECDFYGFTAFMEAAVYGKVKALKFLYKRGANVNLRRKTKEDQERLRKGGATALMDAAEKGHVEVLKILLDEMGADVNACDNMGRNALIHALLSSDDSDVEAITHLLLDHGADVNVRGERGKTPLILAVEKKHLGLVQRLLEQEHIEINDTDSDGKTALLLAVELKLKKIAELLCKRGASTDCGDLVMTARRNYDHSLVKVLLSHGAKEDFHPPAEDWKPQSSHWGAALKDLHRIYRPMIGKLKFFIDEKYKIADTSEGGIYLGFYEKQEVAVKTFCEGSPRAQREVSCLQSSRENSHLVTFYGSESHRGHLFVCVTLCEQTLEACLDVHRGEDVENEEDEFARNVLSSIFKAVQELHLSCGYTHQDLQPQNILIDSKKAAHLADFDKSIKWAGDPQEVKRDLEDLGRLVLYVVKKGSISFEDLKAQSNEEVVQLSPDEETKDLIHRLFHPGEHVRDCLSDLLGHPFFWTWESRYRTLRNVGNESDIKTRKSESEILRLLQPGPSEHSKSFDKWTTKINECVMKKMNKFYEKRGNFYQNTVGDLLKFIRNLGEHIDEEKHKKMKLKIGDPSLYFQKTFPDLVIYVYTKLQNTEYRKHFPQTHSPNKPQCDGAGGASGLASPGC

[3] = test system: HeLa; assay: Cytotoxicity against human HeLa cells assessed as cell growth at 1 uM after 6 to 24 hrs by counting chamber analysis relative to control; type: functional; conditions: read-out: Activity
[4] = Half life of the compound assessed as snake venom phosphodiesterase-mediated compound hydrolysis at 9 uM by HPLC analysis; type: ADME; conditions: serpentes
[5] = molecular target: T2, 2-5A-dependent ribonuclease (Homo sapiens) (UniProt Q05823); assay: Ratio of p5'A2'p5'A2'p5'A2'p5'A EC50 to compound EC50 for recombinant human RNase L activity
T2 sequence (whole entry): T1 sequence (Q05823 whole entry)

[6] = test system: HeLa; assay: Cytotoxicity against human HeLa cells assessed as cell growth inhibition at 0.1 to 1 uM after 6 to 24 hrs by counting chamber analysis; type: functional, cell-based

| Structure (SMILES) | EC50 ([2]; read-out: EC50) [nM] | Ratio EC50 [5] | also measured |
| --- | --- | --- | --- |
| C[C@H]1O[C@@H](n2cc(F)c(=O)[nH]c2=O)[C@H](O)[C@@H]1O | – | – | growth inhibition (GI) [1]: Dose-dependent effect |
| Nc1ncnc2c1ncn2[C@@H]1O[C@H](COP(=O)(O)O[C@@H]2[C@H](O)[C@@H](COP(=O)(O)O[C@@H]3[C@H](O)[C@@H](COP(=O)(O)O[C@@H]4[C@H](O)[C@@H](CO)O[C@H]4n4cnc5c(N)ncnc54)O[C@H]3n3cnc4c(N)ncnc43)O[C@H]2n2cnc3c(N)ncnc32)[C@@H](O)[C@H]1O | – | – | EC50 [2]: Not Active |
| Cc1nc2c(N)ncnc2n1[C@@H]1O[C@H](COP(=O)(O)O[C@@H]2[C@H](O)[C@@H](COP(=O)(O)O[C@@H]3[C@H](O)[C@@H](COP(=O)(O)O[C@@H]4[C@H](O)[C@@H](C)O[C@H]4n4cc(F)c(=O)[nH]c4=O)O[C@H]3n3cnc4c(N)ncnc43)O[C@H]2n2cnc3c(N)ncnc32)[C@@H](O)[C@H]1O | 0.45 | 28.9 | growth at 1 µM [3]: 25%; half-life at 9 µM [4]: 9 min; growth inhibition (GI) [1]: Dose-dependent effect |
| Cc1nc2c(N)ncnc2n1[C@@H]1O[C@H](COP(=O)(O)O[C@@H]2[C@H](O)[C@@H](COP(=O)(O)O[C@@H]3[C@H](O)[C@@H](COP(=O)(O)O[C@@H]4[C@H](O)[C@@H](COP(=O)(O)O)O[C@H]4n4ccc(=O)[nH]c4=O)O[C@H]3n3cnc4c(N)ncnc43)O[C@H]2n2cnc3c(N)ncnc32)[C@@H](O)[C@H]1O | 2.7 | 4.8 | – |
| Cc1nc2c(N)ncnc2n1[C@@H]1O[C@H](COP(=O)(O)O[C@@H]2[C@H](O)[C@@H](COP(=O)(O)O[C@@H]3[C@H](O)[C@@H](COP(=O)(O)O[C@@H]4[C@H](O)[C@@H](CO)O[C@H]4n4ccc(=O)[nH]c4=O)O[C@H]3n3cnc4c(N)ncnc43)O[C@H]2n2cnc3c(N)ncnc32)[C@@H](O)[C@H]1O | 2.4 | 5.4 | – |
| Nc1ncnc2c1ncn2[C@@H]1O[C@H](COP(=O)(O)O[C@@H]2[C@H](O)[C@@H](COP(=O)(O)O[C@@H]3[C@H](O)[C@@H](COP(=O)(O)O[C@@H]4[C@H](O)[C@@H](COP(=O)(O)O)O[C@H]4n4ccc(=O)[nH]c4=O)O[C@H]3n3cnc4c(N)ncnc43)O[C@H]2n2cnc3c(N)ncnc32)[C@@H](O)[C@H]1O | 84 | 0.15 | – |
| Nc1ncnc2c1ncn2[C@@H]1O[C@H](COP(=O)(O)O[C@@H]2[C@H](O)[C@@H](COP(=O)(O)O[C@@H]3[C@H](O)[C@@H](COP(=O)(O)O[C@@H]4[C@H](O)[C@@H](COP(=O)(O)O)O[C@H]4n4cnc5c(N)ncnc54)O[C@H]3n3cnc4c(N)ncnc43)O[C@H]2n2cnc3c(N)ncnc32)[C@@H](O)[C@H]1O | 12.9 | – | growth inhibition (GI) [6]: inactive; half-life at 9 µM [4]: 6.4 min |
| Cc1nc2c(N)ncnc2n1[C@@H]1O[C@H](COP(=O)(O)O[C@@H]2[C@H](O)[C@@H](COP(=O)(O)O[C@@H]3[C@H](O)[C@@H](COP(=O)(O)O[C@H]4[C@@H](O)[C@H](n5ccc(=O)[nH]c5=O)O[C@@H]4CO)O[C@H]3n3cnc4c(N)ncnc43)O[C@H]2n2cnc3c(N)ncnc32)[C@@H](O)[C@H]1O | 134 | 0.1 | – |

Continued, in another order:

| EC50 ([2]; read-out: EC50) [nM] | Ratio EC50 [5] | Structure (SMILES) | also measured |
| --- | --- | --- | --- |
| 20.3 | 0.64 | Cc1nc2c(N)ncnc2n1[C@@H]1O[C@H](COP(=O)(O)O[C@@H]2[C@H](O)[C@@H](COP(=O)(O)O[C@@H]3[C@H](O)[C@@H](COP(=O)(O)O[C@H]4[C@@H](O)[C@H](n5cnc6c(N)ncnc65)O[C@@H]4CO)O[C@H]3n3cnc4c(N)ncnc43)O[C@H]2n2cnc3c(N)ncnc32)[C@@H](O)[C@H]1O | – |
| 2.3 | 5.6 | Cc1nc2c(N)ncnc2n1[C@@H]1O[C@H](COP(=O)(O)O[C@@H]2[C@H](O)[C@@H](COP(=O)(O)O[C@@H]3[C@H](O)[C@@H](COP(=O)(O)O[C@@H]4[C@H](O)[C@@H](CO)O[C@H]4n4cnc5c(N)ncnc54)O[C@H]3n3cnc4c(N)ncnc43)O[C@H]2n2cnc3c(N)ncnc32)[C@@H](O)[C@H]1O | – |
